# Active and inactive are the calls of the source. The calls are words filed in the database; no cut-off is given here.
# Test system: not listed separately
# Test: Inhibition of soybean 15-LOX incubated for 4 mins before linoleic acid substrate addition by spectrophotometry
# Set-up: species or system Glycine max
# Conditions: not given
row,Structure (SMILES),IC50
1,Brc1ccccc1-c1nc2scc(-c3ccccc3)n2c1NC1CCCCC1,Not Active

# Same assay, conditions: read-out: IC50
row,Structure (SMILES),IC50 [µM]
1,O=[N+]([O-])c1ccccc1-c1nc2scc(-c3ccc(Br)cc3)n2c1NC1CCCCC1,170
2,Clc1ccc(-c2nc3scc(-c4ccc(Br)cc4)n3c2NC2CCCCC2)cc1,52
3,COc1ccc(-c2nc3scc(-c4ccccc4)n3c2NC2CCCCC2)cc1,765
4,Fc1ccccc1-c1nc2scc(-c3ccccc3)n2c1NC1CCCCC1,35.4
5,CC(C)(C)CC(C)(C)Nc1c(-c2ccccc2[N+](=O)[O-])nc2scc(-c3ccccc3)n12,70
6,CC(C)(C)CC(C)(C)Nc1c(-c2ccc(Cl)cc2)nc2scc(-c3ccc(Br)cc3)n12,20.7
7,O=c1c(O)c(-c2ccc(O)c(O)c2)oc2cc(O)cc(O)c12 [QUERCETIN],23
8,COc1ccc(-c2csc3nc(-c4ccccc4)c(NC(C)(C)CC(C)(C)C)n23)cc1,11.5

# The next lines start with the values.
row,IC50 [µM],Structure (SMILES)
1,35,Cc1ccc(-c2nc3scc(-c4ccccc4)n3c2NC(C)(C)C)cc1
2,58,COc1ccc(-c2nc3scc(-c4ccccc4)n3c2NC(C)(C)C)cc1
3,33,CC(C)(C)Nc1c(-c2ccc(Cl)cc2)nc2scc(-c3ccccc3)n12
4,737,O=[N+]([O-])c1ccc(-c2nc3scc(-c4ccccc4)n3c2NC2CCCCC2)cc1
5,32,CC(C)(C)CC(C)(C)Nc1c(-c2ccc([N+](=O)[O-])cc2)nc2scc(-c3ccc(Br)cc3)n12
6,45,CC(C)(C)Nc1c(-c2ccc([N+](=O)[O-])cc2)nc2scc(-c3ccccc3)n12

# Test system: PC-12
# Test: Cytoprotective activity against rat PC12 cells assessed as protection against H2O2-induced cell death at 1 to 10 uM pre-treated 3 hrs before H2O2 addition and measured 24 hrs post H2O2 challenge by MTT assay
# Format: functional, cell-based
# Conditions: not given
row,Structure (SMILES),Activity
1,COc1ccc(-c2csc3nc(-c4ccccc4)c(NC(C)(C)CC(C)(C)C)n23)cc1,Active

# Test system: not listed separately
# Test: Toxicity in rat PC12 cells at 1 to 10 uM after 24 hrs by MTT assay
# Format: cell-based
# Conditions: pc-12, 24 h
row,Structure (SMILES),Activity
1,COc1ccc(-c2csc3nc(-c4ccccc4)c(NC(C)(C)CC(C)(C)C)n23)cc1,Non-toxic

# From ChEMBL document CHEMBL3352422, “Imidazo[2,1-b]thiazole derivatives as new inhibitors of 15-lipoxygenase” (Eur J Med Chem, 2014)
